Experimental data taken from PMC11121837, “Impact of Nitric Oxide-Release Kinetics on Antifungal Activity” (Journal of Fungi, 2024).
Values after ≈ are worked out from the molar mass of the structure shown. Values joined by “and” are separate entries in the source; they are usually repeats but may differ in a detail not shown here. Identical values can stand only once. Like-named read-outs stand apart in the source and are kept apart here. Each block holds one compound with its values, some of them ahead of it.

Legend:
[1] = system: Cryptococcus neoformans; experiment: Susceptibility assay (MIC, broth microdilution, CLSI M27); assay type: cell-based; conditions: for MIC: Cryptococcus neoformans, ATCC208821, 72 h, 72 h
[2] = system: Candida auris; experiment: as above; assay type: cell-based; conditions: for MIC: Candidozyma auris, 24 h; for resistance of strain to antifungal (breakpoint): C. auris ATCC MYA-5001, CLSI/EUCAST breakpoints
[3] = system: Aspergillus fumigatus spores; experiment: Susceptibility assay for sporulating fungi (MIC, EUCAST E.Def.9.4); assay type: cell-based; conditions: for MIC: ATCC1022, Aspergillus fumigatus ATCC 1022 spores
[4] = system: Candida albicans; experiment: Susceptibility assay (MIC, broth microdilution, CLSI M27); assay type: cell-based; conditions: for MIC: 24 h
[5] = system: C. neoformans (ATCC208821); assay type: cell-based, Cryptococcus neoformans; conditions: C. neoformans; daily exposure to 1/10th of MIC; by passage 5
[6] = system: C. auris (MYA-5001); assay type: cell-based, Candida auris; conditions: C. auris; daily exposure to 1/10th of MIC; by passage 5
[7] = Cryptococcus neoformans ATCC 208821
[8] = Cryptococcus neoformans ATCC MYA-4566
[9] = Cryptococcus neoformans ATCC MYA-4567

SMILES: Nc1nc(=O)[nH]cc1F [5-fluorocytosine, reference compound]
MIC [1, 7]: 4 µg/mL (≈ 31 µM) | MIC ([2]; Candida auris ATCC MYA-5001): 2 µg/mL (≈ 15.5 µM) | MIC [3]: > 62.5 µg/mL | MIC ([4]; Candida albicans ATCC MYA-2876): 0.125 µg/mL (≈ 0.968 µM) | increase of MIC and MFC values after serial passaging [5]: over 256 fold | increase of MIC and MFC values after serial passaging [6]: over 256 fold

SMILES: NCCNCCN [DETA, Diethylenetriamine, reference compound]
MIC of base scaffold [1, 7]: > 20000 µg/mL | MIC of base scaffold [1, 8]: > 20000 µg/mL | MIC of base scaffold [1, 9]: 10000 µg/mL | MIC of base scaffold ([2]; Candida auris ATCC MYA-5000): > 20000 µg/mL | MIC of base scaffold ([2]; Candida auris ATCC MYA-5001): > 20000 µg/mL | MIC of base scaffold ([2]; Candida auris ATCC MYA-5003): > 20000 µg/mL | MIC of base scaffold ([4]; Candida albicans ATCC 14053): > 20000 µg/mL | MIC of base scaffold ([4]; Candida albicans ATCC 18804): > 20000 µg/mL | MIC of base scaffold ([4]; Candida albicans ATCC MYA-2876): > 20000 µg/mL

SMILES: NCCCNCCCN [DPTA, bis(3-aminopropyl) amine, reference compound]
MIC of base scaffold [1]: 5000 µg/mL and 2500 µg/mL | MIC of base scaffold [2]: > 20000 µg/mL | MIC of base scaffold [4]: 20000 µg/mL

SMILES: NCCCNCCCCNCCCN [SPER, spermine, reference compound]
MIC of base scaffold [1, 7]: 5000 µg/mL | MIC of base scaffold [1, 8]: 2500 µg/mL | MIC of base scaffold [1, 9]: 2500 µg/mL | MIC of base scaffold ([2]; Candida auris ATCC MYA-5000): > 20000 µg/mL | MIC of base scaffold ([2]; Candida auris ATCC MYA-5001): > 20000 µg/mL | MIC of base scaffold ([2]; Candida auris ATCC MYA-5003): > 20000 µg/mL | MIC of base scaffold ([4]; Candida albicans ATCC 14053): 20000 µg/mL | MIC of base scaffold ([4]; Candida albicans ATCC 18804): > 20000 µg/mL | MIC of base scaffold ([4]; Candida albicans ATCC MYA-2876): > 20000 µg/mL

More lines, main results first:

MIC [1, 7]: 0.195 µg/mL (≈ 0.211 µM) | MIC ([2]; Candida auris ATCC MYA-5001): 0.5 µg/mL (≈ 0.541 µM) | MIC [3]: 2.5 µg/mL (≈ 2.71 µM) | MIC ([4]; Candida albicans ATCC MYA-2876): 0.25 µg/mL (≈ 0.271 µM)
SMILES: C[C@@H]1[C@H](O)[C@@H](C)/C=C/C=C/C=C/C=C/C=C/C=C/C=C/[C@H](O[C@@H]2O[C@H](C)[C@@H](O)[C@H](N)[C@@H]2O)C[C@@H]2O[C@](O)(C[C@@H](O)C[C@@H](O)[C@H](O)CC[C@@H](O)C[C@@H](O)CC(=O)O[C@H]1C)C[C@H](O)[C@H]2C(=O)O [amphotericin B, reference compound]
resistance of strain to antifungal (breakpoint) ([3]; A. fumigatus ATCC 1022, CLSI/EUCAST breakpoints): resistant

MIC [1, 7]: 0.3 µg/mL (≈ 0.945 µM) | MIC ([2]; Candida auris ATCC MYA-5001): > 4000 µg/mL | MIC [3]: > 500 µg/mL | MIC ([4]; Candida albicans ATCC MYA-2876): > 4000 µg/mL
SMILES: CN(Cc1ccc(C(C)(C)C)cc1)Cc1cccc2ccccc12 [butenafine, reference compound]

MIC [1, 7]: 32 µg/mL (≈ 29.3 µM) | MIC ([2]; Candida auris ATCC MYA-5001): > 32 µg/mL | MIC [3]: 125 µg/mL (≈ 114 µM) | MIC ([4]; Candida albicans ATCC MYA-2876): 0.25 µg/mL (≈ 0.229 µM)
SMILES: CC[C@H](C)C[C@H](C)CCCCCCCCC(=O)N[C@H]1C[C@@H](O)[C@@H](NCCN)NC(=O)[C@@H]2[C@@H](O)CCN2C(=O)[C@H]([C@H](O)CCN)NC(=O)[C@H]([C@H](O)[C@@H](O)c2ccc(O)cc2)NC(=O)[C@@H]2C[C@@H](O)CN2C(=O)[C@H]([C@@H](C)O)NC1=O [caspofungin, reference compound]
resistance of strain to antifungal (breakpoint) [2]: resistant

MIC [1, 7]: 4 µg/mL (≈ 13.1 µM) | MIC ([2]; Candida auris ATCC MYA-5001): > 32 µg/mL | MIC [3]: > 125 µg/mL | MIC ([4]; Candida albicans ATCC MYA-2876): > 32 µg/mL
SMILES: OC(Cn1cncn1)(Cn1cncn1)c1ccc(F)cc1F [fluconazole, reference compound]
resistance of strain to antifungal (breakpoint) [2]: resistant | resistance of strain to antifungal (breakpoint) ([4]; C. albicans ATCC MYA-2876, CLSI/EUCAST breakpoints): resistant

MIC [1, 7]: 0.5 µg/mL (≈ 1.2 µM) | MIC ([2]; Candida auris ATCC MYA-5001): 4 µg/mL (≈ 9.61 µM) | MIC [3]: > 500 µg/mL | MIC ([4]; Candida albicans ATCC MYA-2876): 60 µg/mL (≈ 144 µM)
SMILES: Clc1ccc(COC(Cn2ccnc2)c2ccc(Cl)cc2Cl)c(Cl)c1 (stereo not drawn) [miconazole, reference compound]
